Experimental data as given in ChEMBL document CHEMBL1158657, “Improved antitumor activity by modification of nogalamycin” (1979).

Columns and labels:
Assay type in all cases: functional
B16 [1] = assay: Antitumor activity against mouse B16 cells xenografted in mouse assessed as increase in life span at 50 mg/kg/day, ip after 9 days; conditions: route intraperitoneal
P388 [2] = assay: Antitumor activity against mouse P388 cells xenografted in mouse assessed as increase in life span at 25 mg/kg/day, ip after 9 days; conditions: route intraperitoneal
L1210 [3] = assay: Cytotoxicity against mouse L1210 cells; conditions: for IC50: Mus musculus
L1210 [4] = assay: Antitumor activity against mouse L1210 cells xenografted in mouse assessed as increase in life span at 50 mg/kg/day, ip after 9 days; conditions: route intraperitoneal
L1210 [5] = assay: Inhibition of DNA synthesis in mouse L1210 cells; conditions: read-out: ID50 (the source's name)
L1210 [6] = assay: Inhibition of RNA synthesis in mouse L1210 cells; conditions: read-out: ID50 (the source's name)
B16 [7] = assay: Antitumor activity against mouse B16 cells xenografted in mouse assessed as increase in life span at 12 mg/kg/day, ip after 9 days; conditions: route intraperitoneal
P388 [8] = assay: Antitumor activity against mouse P388 cells xenografted in mouse assessed as increase in life span at 3.1 mg/kg/day, ip after 9 days; conditions: route intraperitoneal
B16 [9] = assay: Antitumor activity against mouse B16 cells xenografted in mouse assessed as increase in life span at 10 mg/kg/day, ip after 9 days; conditions: route intraperitoneal
P388 [10] = assay: Antitumor activity against mouse P388 cells xenografted in mouse assessed as increase in life span at 6.5 mg/kg/day, ip after 9 days; conditions: route intraperitoneal
P388 [11] = assay: Antitumor activity against mouse P388 cells xenografted in mouse assessed as increase in life span at 20 mg/kg/day, ip after 9 days; conditions: route intraperitoneal
L1210 [12] = assay: Antitumor activity against mouse L1210 cells xenografted in mouse assessed as increase in life span at 20 mg/kg/day, ip after 9 days; conditions: route intraperitoneal
L1210 [13] = assay: Inhibition of RNA synthesis in mouse L1210 cells at 10 nmole/ml
P388 [14] = assay: Antitumor activity against mouse P388 cells xenografted in mouse assessed as increase in life span at 50 mg/kg/day, ip after 9 days; conditions: route intraperitoneal
P388 [15] = assay: Antitumor activity against mouse P388 cells xenografted in mouse assessed as increase in life span at 4 mg/kg/day, ip after 9 days; conditions: route intraperitoneal

SMILES | Activity (P388 [2]) [%] | IC50 (L1210 [3]; L1210, read-out: ID50) [mg/L] | IC50 (L1210 [5]) [µM] | IC50 (L1210 [6]) [µM] | other results
COC(=O)[C@@H]1c2cc3c(c(O)c2[C@@H](OC)C[C@]1(C)O)C(=O)c1c(O)cc2c(c1C3=O)O[C@@H]1O[C@@]2(C)[C@H](O)[C@@H](N(C)C)[C@@H]1O | 60 | 0.27 | 3.8 | 0.5 | Activity (B16 [1]): 84%; Activity (L1210 [4]): 12%
CCO[C@H]1C[C@](C)(O)Cc2cc3c(c(O)c21)C(=O)c1c(O)cc2c(c1C3=O)O[C@@H]1O[C@@]2(C)[C@H](O)[C@@H](N(C)C)[C@@H]1O | – | 0.43 | 3.2 | 0.8 | Activity (B16 [7]): 34%
CN[C@H]1C[C@](C)(O)[C@H](C(=O)OC)c2cc3c(c(O)c21)C(=O)c1c(O)cc2c(c1C3=O)O[C@@H]1O[C@@]2(C)[C@H](O)[C@@H](N(C)C)[C@@H]1O | 58 | – | – | – | –
CCCO[C@H]1C[C@](C)(O)Cc2cc3c(c(O)c21)C(=O)c1c(O)cc2c(c1C3=O)O[C@@H]1O[C@@]2(C)[C@H](O)[C@@H](N(C)C)[C@@H]1O | – | 0.33 | – | – | Activity (P388 [8]): 50%
COC(=O)[C@@H]1c2cc3c(c(O)c2[C@@H](OC)C[C@@]1(C)O)C(=O)c1c(O)cc2c(c1C3=O)O[C@@H]1O[C@@]2(C)[C@H](O)[C@@H](N(C)C)[C@@H]1O | 98 | 0.13 | 7 | 7.8 | Activity (B16 [9]): 35%
CCO[C@H]1C[C@@](C)(O)Cc2cc3c(c(O)c21)C(=O)c1c(O)cc2c(c1C3=O)O[C@@H]1O[C@@]2(C)[C@H](O)[C@@H](N(C)C)[C@@H]1O | – | 0.16 | 10.6 | 5.2 | Activity (B16 [7]): 25%; Activity (P388 [10]): 63%
CCN[C@H]1C[C@](C)(O)[C@H](C(=O)OC)c2cc3c(c(O)c21)C(=O)c1c(O)cc2c(c1C3=O)O[C@@H]1O[C@@]2(C)[C@H](O)[C@@H](N(C)C)[C@@H]1O | 55 | – | – | – | –
CCCO[C@H]1C[C@](C)(O)[C@H](C(=O)OC)c2cc3c(c(O)c21)C(=O)c1c(O)cc2c(c1C3=O)O[C@@H]1O[C@@]2(C)[C@H](O)[C@@H](N(C)C)[C@@H]1O | – | 0.16 | – | – | –
CO[C@H]1[C@H](O[C@H]2C[C@](C)(O)[C@H](C(=O)O)c3cc4c(c(O)c32)C(=O)c2c(O)cc3c(c2C4=O)O[C@@H]2O[C@@]3(C)[C@H](O)[C@@H](N(C)C)[C@@H]2O)O[C@@H](C)[C@H](OC)[C@@]1(C)OC [NOGALAMYCINIC ACID] | – | 1 | – | – | ID95 (L1210 [3]): 1.94 mg/L; Activity (P388 [11]): 56%; Activity (L1210 [12]): 18%; inhibition (INH) (L1210 [13]): 86.7%
COC(=O)[C@@H]1c2cc3c(c(O)c2CC[C@]1(C)O)C(=O)c1c(O)cc2c(c1C3=O)O[C@@H]1O[C@@]2(C)[C@H](O)[C@@H](N(C)C)[C@@H]1O | – | – | – | – | Activity (P388 [14]): 27%; ID95 (L1210 [3]): 1.51 µM; IC50 (L1210 [3]; L1210, read-out: ID50 (the source's name)): 0.58 µM
COC(=O)[C@@H]1c2cc3c(c(O)c2[C@@H](N(C)C)C[C@]1(C)O)C(=O)c1c(O)cc2c(c1C3=O)O[C@@H]1O[C@@]2(C)[C@H](O)[C@@H](N(C)C)[C@@H]1O | – | – | – | – | Activity (P388 [14]): 54%
CC(C)O[C@H]1C[C@@](C)(O)Cc2cc3c(c(O)c21)C(=O)c1c(O)cc2c(c1C3=O)O[C@@H]1O[C@@]2(C)[C@H](O)[C@@H](N(C)C)[C@@H]1O | – | – | – | – | Activity (P388 [15]): 20%
CCO[C@H]1C[C@](C)(O)[C@H](C(=O)OC)c2cc3c(c(O)c21)C(=O)c1c(O)cc2c(c1C3=O)O[C@@H]1O[C@@]2(C)[C@H](O)[C@@H](N(C)C)[C@@H]1O | – | 0.16 | – | – | –
